{
  "source": "patent US20050054696A1",
  "about": "“Indole compounds and medicinal use thereof” (priority 2001, published 2005)",
  "data": [
    {"target": "T1, recombinant human liver glycogen phosphorylase (HLGPa) (Homo sapiens, UniProt P06737)", "T1 construct": "made in house; host or cells: Sf9 insect cells (unpurified cell lysate used as enzyme solution)", "T1 sequence (P06737 1-847)": "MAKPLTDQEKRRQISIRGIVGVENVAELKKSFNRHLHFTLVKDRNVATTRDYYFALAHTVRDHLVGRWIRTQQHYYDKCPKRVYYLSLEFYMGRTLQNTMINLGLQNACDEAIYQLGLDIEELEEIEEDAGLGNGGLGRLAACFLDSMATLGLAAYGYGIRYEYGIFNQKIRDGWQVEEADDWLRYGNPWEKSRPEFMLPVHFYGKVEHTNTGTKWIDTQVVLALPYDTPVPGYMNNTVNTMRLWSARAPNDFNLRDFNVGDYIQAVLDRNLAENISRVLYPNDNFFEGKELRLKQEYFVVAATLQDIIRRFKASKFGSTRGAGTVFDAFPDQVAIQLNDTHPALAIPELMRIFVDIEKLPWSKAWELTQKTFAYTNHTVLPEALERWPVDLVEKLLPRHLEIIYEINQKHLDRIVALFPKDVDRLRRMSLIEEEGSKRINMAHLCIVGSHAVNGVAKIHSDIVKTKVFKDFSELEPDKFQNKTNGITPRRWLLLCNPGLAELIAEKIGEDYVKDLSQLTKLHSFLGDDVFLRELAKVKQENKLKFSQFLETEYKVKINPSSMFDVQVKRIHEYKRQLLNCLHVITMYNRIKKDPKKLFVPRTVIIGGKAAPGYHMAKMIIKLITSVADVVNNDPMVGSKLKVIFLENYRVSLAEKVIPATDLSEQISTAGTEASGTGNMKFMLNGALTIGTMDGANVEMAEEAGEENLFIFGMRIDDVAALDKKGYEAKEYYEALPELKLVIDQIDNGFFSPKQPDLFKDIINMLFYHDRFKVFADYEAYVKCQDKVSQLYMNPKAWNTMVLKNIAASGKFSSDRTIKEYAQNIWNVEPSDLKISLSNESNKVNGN", "assay": "Measurement of liver glycogen phosphorylase activity (enzyme inhibitory activity against HLGPa)", "type": "biochemical", "conditions": "Sf9 cell lysate expressing recombinant enzyme; reverse reaction (glycogen synthesis from G1-P), phosphate by malachite green, 60 min room temperature", "how_it_was_run": "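Activity was run in the reverse, glycogen-synthesis direction, using Sf9 lysate expressing recombinant human liver glycogen phosphorylase (enzyme solution 80 μg/mL protein, pH 7.0). Substrate solution was Tris pH 7.2 with 1.25 mM glucose-1-phosphate, 2.5 mg/ml glycogen and 7.5 mM glucose, reacted 60 min at room temperature. Released phosphate was measured by malachite green A650, with % inhibition taken against DMSO control and no-enzyme blank.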", "units": {"IC50": "nM"}, "values": [
      {"smiles": "Cc1ccc2[nH]c(C(=O)Nn3c(=O)[nH]c4ccc(O)cc4c3=O)cc2c1", "note": "[Example 2-28, 5-methyl-1H-indole-2-carboxylic acid (1,2,3,4-tetrahydro-6-hydroxy-2,4-dioxoquinazolin-3-yl)amide]", "IC50": 56},
      {"smiles": "CC(=O)Oc1ccc2[nH]c(=O)n(NC(=O)c3cc4cc(C)ccc4[nH]3)c(=O)c2c1", "note": "[Example 2-29, acetic acid 3-((5-methyl-1H-indole-2-carbonyl)amino)-1,2,3,4-tetrahydro-2,4-dioxoquinazolin-6-yl ester]", "IC50": 270},
      {"smiles": "CCCn1c(=O)n(NC(=O)c2cc3cc(Cl)ccc3[nH]2)c(=O)c2ccccc21", "note": "[Example 2-30, 5-chloro-1H-indole-2-carboxylic acid (1,2,3,4-tetrahydro-2,4-dioxo-1-propylquinazolin-3-yl)amide]", "IC50": 88},
      {"smiles": "Cn1c(=O)n(NC(=O)c2cc3cc(Cl)ccc3[nH]2)c(=O)c2ccccc21", "note": "[Example 2-31, 5-chloro-1H-indole-2-carboxylic acid (1,2,3,4-tetrahydro-1-methyl-2,4-dioxoquinazolin-3-yl)amide]", "IC50": 26},
      {"smiles": "O=C(NN1C(=O)CCN(c2ccccc2)C1=O)c1cc2cc(Cl)ccc2[nH]1", "note": "[Example 3-3, N-(2,4-dioxo-1-phenyl-perhydropyrimidin-3-yl)-5-chloro-1H-indole-2-carboxamide]", "IC50": 78},
      {"smiles": "O=C(NN1C(=O)CCN(c2ccc(F)cc2)C1=O)c1cc2cc(Cl)ccc2[nH]1", "note": "[Example 3-5, 5-chloro-1H-indole-2-carboxylic acid (1-(4-fluorophenyl)-2,4-dioxoperhydropyrimidin-3-yl)amide]", "IC50": 190},
      {"smiles": "O=C(NN1C(=O)CCN(c2ccccn2)C1=O)c1cc2cc(Cl)ccc2[nH]1", "note": "[Example 3-6, 5-chloro-1H-indole-2-carboxylic acid (2,4-dioxo-1-(pyridin-2-yl)perhydropyrimidin-3-yl)amide]", "IC50": 190},
      {"smiles": "O=C(NN1C(=O)CCN(c2cccc(F)c2)C1=O)c1cc2cc(Cl)ccc2[nH]1", "note": "[Example 3-7, 5-chloro-1H-indole-2-carboxylic acid (1-(3-fluorophenyl)-2,4-dioxoperhydropyrimidin-3-yl)amide]", "IC50": 50},
      {"smiles": "O=C(NN1C(=O)CCN(c2ccccc2)C1=O)c1cc2cc(F)ccc2[nH]1", "note": "[Example 3-9, 5-fluoro-1H-indole-2-carboxylic acid (2,4-dioxo-1-phenyl-perhydropyrimidin-3-yl)amide]", "IC50": 730},
      {"smiles": "Cc1ccc2[nH]c(C(=O)NN3C(=O)CCN(c4ccccc4)C3=O)cc2c1", "note": "[Example 3-10, 5-methyl-1H-indole-2-carboxylic acid (2,4-dioxo-1-phenyl-perhydropyrimidin-3-yl)amide]", "IC50": 440},
      {"smiles": "O=C(NN1C(=O)CCN(c2cccc(Cl)c2)C1=O)c1cc2cc(Cl)ccc2[nH]1", "note": "[Example 3-11, 5-chloro-1H-indole-2-carboxylic acid (1-(3-chlorophenyl)-2,4-dioxoperhydropyrimidin-3-yl)amide]", "IC50": 520},
      {"smiles": "Cc1cccc(N2CCC(=O)N(NC(=O)c3cc4cc(Cl)ccc4[nH]3)C2=O)c1", "note": "[Example 3-12, 5-chloro-1H-indole-2-carboxylic acid (2,4-dioxo-1-(m-tolyl)perhydropyrimidin-3-yl)amide]", "IC50": 680},
      {"smiles": "Cc1ccc(N2CCC(=O)N(NC(=O)c3cc4cc(Cl)ccc4[nH]3)C2=O)cc1", "note": "[Example 3-13, 5-chloro-1H-indole-2-carboxylic acid (2,4-dioxo-1-(p-tolyl)perhydropyrimidin-3-yl)amide]", "IC50": 440},
      {"smiles": "O=C(NN1C(=O)CCN(c2ccc(Cl)cc2)C1=O)c1cc2cc(Cl)ccc2[nH]1", "note": "[Example 3-14, 5-chloro-1H-indole-2-carboxylic acid (1-(4-chlorophenyl)-2,4-dioxoperhydropyrimidin-3-yl)amide]", "IC50": 120},
      {"smiles": "Cc1ccccc1N1CCC(=O)N(NC(=O)c2cc3cc(Cl)ccc3[nH]2)C1=O", "note": "[Example 3-15, 5-chloro-1H-indole-2-carboxylic acid (2,4-dioxo-1-(o-tolyl)perhydropyrimidin-3-yl)amide]", "IC50": 150},
      {"smiles": "O=C(NN1C(=O)CN(c2ccccc2)C1=O)c1cc2cc(Cl)ccc2[nH]1", "note": "[Example 4-2, N-(2,4-dioxo-1-phenylimidazolidin-3-yl)-5-chloro-1H-indole-2-carboxamide]", "IC50": 23},
      {"smiles": "O=C(NN1C(=O)CN(c2ccccc2)C1=S)c1cc2cc(Cl)ccc2[nH]1", "note": "[Example 4-3, N-(4-oxo-1-phenyl-2-thioxoimidazolidin-3-yl)-5-chloro-1H-indole-2-carboxamide]", "IC50": "> 100"},
      {"smiles": "O=C(NN1CN(c2ccccc2)CC1=O)c1cc2cc(Cl)ccc2[nH]1", "note": "[Example 4-4, N-(1-oxo-4-phenylimidazolidin-2-yl)-5-chloro-1H-indole-2-carboxamide]", "IC50": "> 100"},
      {"smiles": "O=C(NN1CCN(c2ccccc2)C1=O)c1cc2cc(Cl)ccc2[nH]1", "note": "[Example 4-5, N-(2-oxo-1-phenylimidazolidin-3-yl)-5-chloro-1H-indole-2-carboxamide]", "IC50": "> 100"},
      {"smiles": "O=C(NN1C(=O)[C@@H]2CCCN2C1=O)c1cc2cc(Cl)ccc2[nH]1", "note": "[Example 4-7, 5-chloro-1H-indole-2-carboxylic acid ((4S)-1,3-dioxo-perhydropyrrolo[1,2-c]imidazol-2-yl)amide]", "IC50": "> 100"},
      {"smiles": "O=C(NN1C(=O)[C@H]2CCCN2C1=O)c1cc2cc(Cl)ccc2[nH]1", "note": "[Example 4-8, 5-chloro-1H-indole-2-carboxylic acid ((4R)-1,3-dioxo-perhydropyrrolo[1,2-c]imidazol-2-yl)amide]", "IC50": "> 100"},
      {"smiles": "O=C(NN1C(=O)N[C@@H](Cc2ccccc2)C1=O)c1cc2cc(Cl)ccc2[nH]1", "note": "[Example 4-9, 5-chloro-1H-indole-2-carboxylic acid ((4S)-4-benzyl-2,5-dioxoimidazolidin-1-yl)amide]", "IC50": "> 100"},
      {"smiles": "O=C(NN1C(=O)N[C@H](Cc2ccccc2)C1=O)c1cc2cc(Cl)ccc2[nH]1", "note": "[Example 4-10, 5-chloro-1H-indole-2-carboxylic acid ((4R)-4-benzyl-2,5-dioxoimidazolidin-1-yl)amide]", "IC50": "> 100"},
      {"smiles": "O=C(NN1C(=O)CNC1=O)c1cc2cc(Cl)ccc2[nH]1", "note": "[Example 4-11, 5-chloro-1H-indole-2-carboxylic acid (2,4-dioxoimidazolidin-3-yl)amide]", "IC50": "> 100"},
      {"smiles": "CN1C(=O)N(NC(=O)c2cc3cc(Cl)ccc3[nH]2)C(=O)[C@@H]1c1ccccc1", "note": "[Example 4-12, 5-chloro-1H-indole-2-carboxylic acid (1-methyl-2,5-dioxo-4-phenylimidazolidin-1-yl)amide]", "IC50": "> 100"},
      {"smiles": "O=C(NN1C(=O)CN(c2ccc(F)cc2)C1=O)c1cc2cc(Cl)ccc2[nH]1", "note": "[Example 4-13, 5-chloro-1H-indole-2-carboxylic acid (2,4-dioxo-1-(4-fluorophenyl)imidazolidin-3-yl)amide]", "IC50": "> 100"},
      {"smiles": "O=C(NN1C(=O)NC(c2ccccc2F)C1=O)c1cc2cc(Cl)ccc2[nH]1", "note": "(stereo not drawn) [Example 4-14, 5-chloro-1H-indole-2-carboxylic acid (2,5-dioxo-4-(2-fluorophenyl)imidazolidin-1-yl)amide]", "IC50": 110},
      {"smiles": "O=C(NN1C(=O)N[C@@H](c2ccc(O)cc2)C1=O)c1cc2cc(Cl)ccc2[nH]1", "note": "[Example 4-18, 5-chloro-1H-indole-2-carboxylic acid ((4S)-2,5-dioxo-4-(4-hydroxyphenyl)imidazolidin-1-yl)amide]", "IC50": 75},
      {"smiles": "COc1ccc([C@H]2NC(=O)N(NC(=O)c3cc4cc(Cl)ccc4[nH]3)C2=O)cc1", "note": "[Example 4-20, 5-chloro-1H-indole-2-carboxylic acid ((4R)-2,5-dioxo-4-(4-methoxyphenyl)imidazolidin-1-yl)amide]", "IC50": 170},
      {"smiles": "O=C(NNC(=O)c1cc2cc(Cl)ccc2[nH]1)Nc1ccccc1F", "note": "[Example 5-5, 5-chloro-1H-indole-2-carboxylic acid 2-((2-fluorophenyl)aminocarbonyl)hydrazide]", "IC50": 79},
      {"smiles": "O=C(NNC(=O)c1cc2cc(Cl)ccc2[nH]1)Nc1cccc(F)c1", "note": "[Example 5-6, 5-chloro-1H-indole-2-carboxylic acid 2-((3-fluorophenyl)aminocarbonyl)hydrazide]", "IC50": 49},
      {"smiles": "O=C(NNC(=O)c1cc2cc(Cl)ccc2[nH]1)Nc1ccc(F)cc1", "note": "[Example 5-7, 5-chloro-1H-indole-2-carboxylic acid 2-((4-fluorophenyl)aminocarbonyl)hydrazide]", "IC50": 88},
      {"smiles": "CN(NC(=O)c1cc2cc(Cl)ccc2[nH]1)C(=O)Nc1ccccc1", "note": "[Example 5-8, 5-chloro-1H-indole-2-carboxylic acid 2-(anilinocarbonyl)-2-methylhydrazide]", "IC50": "> 100"}
    ]}
  ]
}
